The test system of data set [1] is DOPA levels in striatum. Put plainly: Reserpine-induced DOPA accumulation. It is filed as in vivo, Male Wistar rats. The settings on record: rats, 3 mg/kg, p.o., 1.16 h before sacrifice, striatum. As for the experimental part: Example-53: Reserpine-Induced DOPA Accumulation
Male Wistar rats were pretreated with reserpine (5 mg/kg, s.c.) approximately 18 h before sacrifice and were thereafter fasted until sacrifice. Example-2 (3 mg/kg, p.o.) and (3-(3-hydroxyphenyl)-N-n-propylpiperidine (3-PPP); 30 mg/kg, s.c.) were administered 1.16 h and 1 h, respectively before sacrifice. Haloperidol (0.5 mg/kg, s.c.) was used as a positive control and was dosed 10 min prior to 3-PPP in a separate group of animals. 3-Hydroxybenzylhydrazine dihydrochloride (NSD-1015; 100 mg/kg, s.c.) was then administered 0.5 h before sacrifice. Each rat was sacrificed, brain was removed and then striatum was isolated. The tissue was immediately weighed and homogenized in 0.1 N perchloric acid by means of an ultrasonic disruptor while being cooled in ice. The homogenate was centrifuged at 4° C. at 20,000 g for 15 min. The supernatant was assayed for dihydroxyphenylalanine (DOPA) levels using HPLC-ECD.

Data set [2] has as its target T1, human adrenergic α1B receptor (Homo sapiens, UniProt P35368).
T1 construct: expressed in transfected cells; host or cells: Chem-1
T1 sequence (P35368 1-520): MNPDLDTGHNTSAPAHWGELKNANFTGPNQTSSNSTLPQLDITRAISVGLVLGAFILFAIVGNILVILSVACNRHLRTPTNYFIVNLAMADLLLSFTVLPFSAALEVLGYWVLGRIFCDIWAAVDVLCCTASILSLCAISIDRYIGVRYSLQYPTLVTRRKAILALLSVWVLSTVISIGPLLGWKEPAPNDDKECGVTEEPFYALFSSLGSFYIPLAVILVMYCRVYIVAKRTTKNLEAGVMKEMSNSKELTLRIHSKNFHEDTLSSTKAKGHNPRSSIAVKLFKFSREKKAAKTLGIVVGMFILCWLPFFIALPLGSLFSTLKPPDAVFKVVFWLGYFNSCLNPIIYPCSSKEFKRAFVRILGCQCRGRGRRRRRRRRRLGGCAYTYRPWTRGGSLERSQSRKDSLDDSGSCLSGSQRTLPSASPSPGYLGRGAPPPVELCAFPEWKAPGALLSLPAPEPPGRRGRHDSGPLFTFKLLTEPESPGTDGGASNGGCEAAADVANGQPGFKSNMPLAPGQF
Put plainly: Determination of Ki values at adrenergic α1B receptor ([3H]-Prazosin radioligand binding). Particulars: hα1B, Chem-1 cells, [3H]-Prazosin 1 nM; read-out: Ki Alpha1B. How it is done: Example-47: Determination of Ki Values at Adrenergic α1B Receptor
• Receptor source: Recombinant mammalian cells (Chem-1) • Radioligand: [^3H]-Prazosin (77.4 Ci/mmol) • Final ligand concentration: 1 nM • Non-specific determinant: 0.1 mM Prazosin • Reference compound: Prazosin • Positive control: Prazosin Incubation conditions: Reactions were carried out in buffer with pH 7.4 containing 67 mM Tris-HCl, 67 μM EDTA, […] for 1 h at RT. The reaction was terminated by rapid vacuum filtration onto the glass fiber filters. Radioactivity trapped onto the filters was determined and compared to the control values in order to ascertain any interactions of the test compound(s) with cloned human adrenergic α1B receptor binding site.

Data set [3] has as its system motor coordination. The data set can be described thus: Rat rotarod assay. Particulars: rats, doses of 3 & 10 mg/kg, 60 min prior to trial. The format is in vivo. How it is done: Example-52: Rat Rotarod Assay
The rotarod test was employed to investigate the possible effect of Example-2 on motor coordination. Twenty hours prior to the test, rats were trained to remain on revolving bar (4 rpm) of the rotarod apparatus (TSE Systems; GmHb, Germany). Animals that successfully stayed on rotating rod for 60 seconds (out of 4 trials per animal) were selected for further study. […] A single trial was carried out on the next day. Animals that were able to stay on the rotating rod for 60 seconds were chosen for further study. Animals were administered Example-2 or Vehicle 60 min prior to the trial. The latency to fall from the rotating rod was noted.
A general note: In the rotarod test animals must keep their balance on a rotating rod.

In data set [4] the test system is amphetamine-induced hyperlocomotion. The data set can be described thus: Amphetamine-induced open field assay. The format is in vivo, Male Wistar rats. The settings on record: rats, 3, 10, 30 mg/kg, p.o., vs Amphetamine (2.5 mg/kg, i.p.) treated group. As for the experimental part: Example-51: Amphetamine-Induced Open Filed Assay
Male Wistar rats of 230-250 g weight were used. The body weights of the rats were recorded. Rats were randomized according to their body weights. Animals were brought to the laboratory 1 h prior to acclimatizing to the laboratory conditions. The open field is black colored arena of 51×51×51 cm enclosed by black plastic walls of same dimensions. Rats were habituated to the open field arena for a period of 15 min. Animals were administered respective treatments (Vehicle or Example-2) 60 min prior to the trial. After 30 min, animals were challenged with amphetamine (2.5 mg/kg, i.p.) or vehicle. Then the animals were placed in open field arenas and distance traveled by […] was tracked for 15 min using Videomot software. Data was analyzed using GraphPad prism.

Data set [5] can be described thus: Rodent pharmacokinetic study. It is filed as in vivo, Male Wistar rats. Particulars: male, Wistar, plasma, rat; for bioavailability: oral 3 mg/kg vs intravenous 1 mg/kg, read-out: F (Bioavailability). As for the experimental part: Example-49: Rodent Pharmacokinetic Study
Male Wistar rats (250±50 grams) were used as experimental animals. Animals were housed individually in polypropylene cages. Two days prior to study, male Wistar rats were anesthetized with isoflurane for surgical placement of jugular vein catheter. Rats were randomly divided for oral (3 mg/kg and 10 mL/kg as dose volume) and intravenous (1 mg/kg and 2.0 mL/kg as dose volume) dosing (n=3/group) and fasted overnight before oral dosing (p.o.). However, rats allocated to intravenous dosing food and water was provided ad libitum.
Intravenous formulation was prepared by using 5% Pharmasolve+45% Propylene Glycol+50% PEG 400 as vehicle. For Oral, formulation was prepared by using 0.25% Tween 80+99.75% of 1% (w/v) hydroxyethylcellulose solution as a vehicle. The dose formulations were prepared freshly on the day of dosing.
After dosing of animal, each time point a 200 μL of blood sample was collected through the jugular vein and replenished with an equivalent volume of normal saline. Collected blood sample was transferred into a labeled eppendorf tube containing 10 μL of sodium heparin (1000 IU/mL) as an anticoagulant. Typically blood samples were collected at following time points: 0.08, 0.25, 0.5, 1, 2, 4, 6, 8, and 24 h post dose. Blood was centrifuged at 4000 revolutions per minute (rpm) for 10 min. Plasma was separated and stored frozen at −80° C. until analysis. The concentrations of the test compounds were quantified in plasma by qualified LC-MS/MS method using suitable extraction technique in the calibration range around 1-2000 ng/mL in plasma. Study samples were analyzed using calibration samples in the batch and quality control samples spread across the batch.
Pharmacokinetic parameters Cmax, AUC0-t, t1/2, Clearance and Bioavailability (F) were calculated using standard non-compartmental model by using Phoenix WinNonlin 8.1 version Software package.

The structures appear in SMILES notation. Counter-ions that a name gives are not always drawn.

Regarding `Cc1nnc(-c2csc(OCCCN3CCN(c4nsc5ccccc45)CC3)n2)o1` [Example-2, 3-(4-{3-[4-(5-Methyl-[1,3,4]oxadiazol-2-yl)-thiazol-2-yloxy]-propyl}-piperazin-1-yl)-benzo[d]isothiazole oxalate], in data set [1], the “Blockade of the effects of 3-PPP on reserpine induced DOPA accumulation” value amounted to 25%. Besides, the Ki – broadly, a measure of affinity in units of concentration, obtained from inhibition or displacement – in data set [2] turned out to be 13.3 nM. In addition, in data set [3], the “Effect on motor coordination (latency to fall from rotating rod)” value is “No notable effects on motor coordination”. For the same molecule, the “Effect on amphetamine-induced locomotion (distance traveled)” value in data set [4] is recorded as “significant decrease in locomotion”. The bioavailability (in general, dose-corrected exposure relative to a reference, in per cent) in data set [5] was found to be 46 ± 2%. Moreover, in data set [5] (intravenous (bolus), 1 mg/kg), the AUC(0-t) (as a rule, exposure summed from dosing to a finite time, without extrapolation to infinity) was determined as 575 ± 60.8 ng·h/mL and the half-life (usually the time needed for the level to fall by half in the phase considered) was 119 ± 57.6 min. Further, in data set [5] (oral (gavage), 3 mg/kg), the exposure AUC(0-t) amounted to 795 ± 34.5 ng·h/mL and the highest level (Cmax) was 724 ± 170 ng/mL.
As to `Cc1noc(-c2csc(OCCCN3CCN(c4nsc5ccccc45)CC3)n2)n1` [compound 12, 3-(4-{3-[4-(3-Methyl-[1,2,4]oxadiazol-5-yl)-thiazol-2-yloxy]-propyl}-piperazin-1-yl)-benzo[d]isothiazole oxalate], the inhibition constant Ki in data set [2] stood at 14.4 nM. The bioavailability in data set [5] was 18 ± 4.3%. In data set [5] (intravenous (bolus), 1 mg/kg), this molecule had an AUC(0-t) of 467 ± 115 ng·h/mL and a half-life of 155 ± 29.4 min. Also, in data set [5] (oral (gavage), 3 mg/kg), the exposure AUC(0-t) came to 250 ± 60 ng·h/mL and the Cmax – broadly, the highest concentration seen after dosing – was 279 ± 59.2 ng/mL.

Source of the values: patent publication US12338236B2, “Benzoisothiazole and benzoisoxazole compounds for the treatment of mental disorders” (SUVEN LIFE SCIENCES LIMITED, priority 2022, dated 2025).
